This passage reports Activity and MIC results from ChEMBL document CHEMBL3046750, “Synthesis, characterization and antimicrobial activity of novel ethyl 1-(N-substituted)-5-phenyl-1H-pyrazole-4-carboxylate derivatives” (2012).

In brackets after ≈: the same amount, converted by molar mass. Activity calls are given as the source filed them. The calls are words filed in the database; no cut-off is given here.

Experiment [1] relates to Escherichia coli. Description: Antibacterial activity against Escherichia coli at 1.6125 ug/ml after 16 hr by serial dilution method. The experiment is classed as functional, organism-based.
Experiment [2] deals with Pseudomonas aeruginosa. Kind of experiment: Antibacterial activity against Pseudomonas aeruginosa at 1.6125 ug/ml after 16 hr by serial dilution method. The experiment is classed as functional, organism-based.
The test system of experiment [3] is Bacillus subtilis. Description: Antibacterial activity against Bacillus subtilis at 1.6125 ug/ml after 16 hr by serial dilution method. The experiment is classed as functional, organism-based.
For experiment [4], the system named is Staphylococcus aureus. Kind of experiment: Antibacterial activity against Staphylococcus aureus at 1.6125 ug/ml after 16 hr by serial dilution method. The experiment is classed as functional, organism-based.
In experiment [5] the test system is Pseudomonas aeruginosa. Kind of experiment: Antibacterial activity against Pseudomonas aeruginosa after 16 hr by serial dilution method. The experiment is classed as functional.
Experiment [6] has as its system Bacillus subtilis. Kind of experiment: Antibacterial activity against Bacillus subtilis after 16 hr by serial dilution method. The experiment is classed as functional.
The test system of experiment [7] is Staphylococcus aureus. Description: Antibacterial activity against Staphylococcus aureus after 16 hr by serial dilution method. Type of experiment: functional.
The subject of experiment [8] is Escherichia coli. Description: Antibacterial activity against Escherichia coli after 16 hr by serial dilution method. The experiment is classed as functional.

For the compound `CCOC(=O)c1cnn(-c2ccc(C)cc2)c1-c1ccccc1`, the result in the experiment on Escherichia coli [1], in the experiment with Pseudomonas aeruginosa [2], in the experiment on Bacillus subtilis [3] and in the experiment on Staphylococcus aureus [4] was inactive.

`CCOC(=O)c1cnn(-c2ccc(C(C)(C)C)cc2)c1-c1ccccc1`: the MIC against Pseudomonas aeruginosa [5] and against Bacillus subtilis [6] was 12.5 µg/mL (≈ 35.9 µM) each time. In addition, the result in the experiment with Escherichia coli [1] and in the experiment with Staphylococcus aureus [4] was inactive.

As for `CCOC(=O)c1cnn(C2CCCCC2)c1-c1ccccc1`, the MIC (as a rule, the lowest concentration that inhibits growth of the organism) is 6.25 µg/mL (≈ 20.9 µM) with Staphylococcus aureus [7], 12.5 µg/mL (≈ 41.9 µM) in the experiment on Escherichia coli [8], 6.25 µg/mL (≈ 20.9 µM) in the experiment on Pseudomonas aeruginosa [5] and 6.25 µg/mL (≈ 20.9 µM) in the experiment with Bacillus subtilis [6].

For `CCOC(=O)c1cnn(-c2ccc(Cl)cc2Cl)c1-c1ccccc1`, the MIC against Staphylococcus aureus [7] stood at 1.61 µg/mL (≈ 4.47 µM); in the experiment on Escherichia coli [8], 1.61 µg/mL (≈ 4.47 µM); with Pseudomonas aeruginosa [5] it was 3.25 µg/mL (≈ 9 µM); in the experiment on Bacillus subtilis [6], 1.61 µg/mL (≈ 4.47 µM).

As for `CCOC(=O)c1cnn(C2CCNCC2)c1-c1ccccc1`, the MIC came to 3.12 µg/mL (≈ 10.4 µM) with Staphylococcus aureus [7], 1.61 µg/mL (≈ 5.39 µM) against Escherichia coli [8], 1.61 µg/mL (≈ 5.39 µM) against Pseudomonas aeruginosa [5] and 3.12 µg/mL (≈ 10.4 µM) against Bacillus subtilis [6].

With `CCOC(=O)c1cnn(-c2ccc(C(=O)O)cc2)c1-c1ccccc1`, the results for the MIC against Staphylococcus aureus [7] and in the experiment on Pseudomonas aeruginosa [5] were 50 µg/mL (≈ 149 µM) and 25 µg/mL (≈ 74.3 µM), respectively. Besides, the result with Escherichia coli [1] and in the experiment with Bacillus subtilis [3] was inactive.

As for `CCOC(=O)c1cnn(C)c1-c1ccccc1`, the outcome with Escherichia coli [1], in the experiment with Pseudomonas aeruginosa [2], with Bacillus subtilis [3] and in the experiment on Staphylococcus aureus [4] was inactive.

`CCOC(=O)c1cnn(-c2ccc(F)cc2)c1-c1ccccc1`: the MIC in the experiment with Staphylococcus aureus [7] was 6.25 µg/mL (≈ 20.1 µM); with Escherichia coli [8], 1.61 µg/mL (≈ 5.2 µM); in the experiment on Pseudomonas aeruginosa [5], 1.61 µg/mL (≈ 5.2 µM); in the experiment with Bacillus subtilis [6], 3.12 µg/mL (≈ 10.1 µM).

As to `CO/N=C(\C(=O)N[C@@H]1C(=O)N2C(C(=O)O)=C(CSc3nc(=O)c(O)nn3C)CS[C@H]12)c1csc(N)n1` [CEFTRIAXONE], the MIC stood at 3.12 µg/mL (≈ 5.63 µM) against Staphylococcus aureus [7], 1.61 µg/mL (≈ 2.91 µM) against Escherichia coli [8], 1.61 µg/mL (≈ 2.91 µM) in the experiment on Pseudomonas aeruginosa [5] and 1.61 µg/mL (≈ 2.91 µM) with Bacillus subtilis [6].

With `CCOC(=O)c1cnn(C(C)(C)C)c1-c1ccccc1`, the outcome in the experiment on Escherichia coli [1], in the experiment on Pseudomonas aeruginosa [2], with Bacillus subtilis [3] and in the experiment with Staphylococcus aureus [4] was inactive.

Turning to `CCOC(=O)c1cnn(-c2ccc3ccccc3n2)c1-c1ccccc1`, the MIC turned out to be 3.12 µg/mL (≈ 9.1 µM) against Staphylococcus aureus [7], 6.25 µg/mL (≈ 18.2 µM) in the experiment on Escherichia coli [8], 3.12 µg/mL (≈ 9.1 µM) against Pseudomonas aeruginosa [5] and 3.12 µg/mL (≈ 9.1 µM) with Bacillus subtilis [6].

For the compound `CCOC(=O)c1cnn(-c2ccc(C(F)(F)F)cc2)c1-c1ccccc1`, the MIC with Staphylococcus aureus [7] was determined as 3.12 µg/mL (≈ 8.67 µM); against Escherichia coli [8], 1.61 µg/mL (≈ 4.48 µM); against Pseudomonas aeruginosa [5], 1.61 µg/mL (≈ 4.48 µM); in the experiment with Bacillus subtilis [6], 1.61 µg/mL (≈ 4.48 µM).

For the compound `CCOC(=O)c1cnn(-c2ccccc2Br)c1-c1ccccc1`, the MIC came to 3.12 µg/mL (≈ 8.42 µM) against Staphylococcus aureus [7], 1.61 µg/mL (≈ 4.34 µM) against Escherichia coli [8], 1.61 µg/mL (≈ 4.34 µM) against Pseudomonas aeruginosa [5] and 1.61 µg/mL (≈ 4.34 µM) with Bacillus subtilis [6].
